The values that follow come from patent US5389615A, “Peptides and pharmaceutical composition thereof in the treatment of pain” (British Technology Group Ltd., priority 1988, dated 1995).

Where “and” joins values, the source holds several entries; their conditions need not be identical. Equal values may be shown once. Read-outs that look alike come from different tables or passages of the source. Non-standard residues stand in square brackets, D forms with d. Residues, ends and D or L forms follow the SMILES beside them.

The conditions of data set [1]: mouse, in vivo.
Data set [2] concerns human blood mononuclear cells (MNC). The experiment in a line: PGE2 release by human blood mononuclear cells. In kind it is cell-based. The method, then:
The effect of K(D)PT and indomethacin on PGE2 release by human blood mononuclear cells (MNC) was investigated. The MNC were isolated from buffy coat residues by density gradient centrifugation (Ficoll-hypaque, Sigma) and resuspended in RPMI 1640 culture medium (Gibco)+ 2% inactivated foetal calf serum (Imperial Laboratories). […] Values are means of quadruplicates ±s.e.m.'s. PGE2 concentrations were measured by radioimmunoassay (NEN Research Products).

In data set [3] the test system is hyperalgesia evoked by acetic acid. The experiment in a line: Contorsions evoked by acetic acid, Example 19. The format is in vivo, mice. The settings on record: for number of contorsions (median), 10 to 20 min after acetic acid: 30 min before acetic acid. The procedure:
The number of contorsions (abdominal constrictions or writhes) was counted in the period between 10 and 20 min after ip challenge with acetic acid by an observer unaware of drug treatment.

In data set [4] the test system is hyperalgesia evoked by Iloprost. The experiment in a line: Contortions (writhing) evoked by Iloprost, Examples 9 and 10. In kind it is in vivo, mice. To be noted: Example 10, Iloprost 10 μg/kg; for total number of contorsions during 20 minutes after ip challenge: control 39.4. The procedure:
(§1) Iloprost is a stable analogue of prostacyclin and has the formula: [drawing 4]
(§2) Example 9 was repeated with some groups of mice given indomethacin at various doses rather than the peptide K(D)PT. A control group of mice received neither indomethacin nor K(D)PT. The data are the total number of contorsions measured during 20 minutes after the ip challenge.
On the technique in general: In writhing tests, fewer writhes than in controls are read as antinociception.

Data set [5] deals with hyperalgesia evoked by acetic acid. As to the kind of experiment: Contortions (writhing) evoked by acetic acid, Examples 9 and 10. In kind it is in vivo, mice. To be noted: Example 10; for total number of contorsions during 20 minutes after ip challenge: control 45.3. The method, then: as §1, §2
The test system of data set [6] is hyperalgesia evoked by IL-1β. The experiment in a line: Modified Randall-Sellito rat paw pressure test, hyperalgesia evoked by IL-1β. The format is in vivo. The settings on record: for DELTA REACTION TIME: 3h after IL-1β, control 23.9.
Procedure: The hyperalgesic activity of IL-1β was investigated by a modified Randall-Sellito rat paw pressure test (Ferreira et al, Eur. J. Pharacol. 53, 39-48, 1978).
The IL-1β was given either intraplantar (ipl, injection volume=0.1 ml) or intraperitoneally (ip, injection volume=0.3 ml).
The intensity of hyperalgesia was quantified as the variation of the reaction time (Δ reaction time, sec) obtained by subtracting the value measured 1,2,3 or 4h after administration of the hyperalgesic agent from the pre-injection control reaction time (zero time). The experimenter was unaware of the group treatments.
The vertical bars are standard errors of the means (s.e.m's) of values obtained in groups of 5 rats.
Each symbol or histogram represents the mean response of 5 animals per treatment group. Vertical bars are s.e.m's.
The data are means±s.e.m.'s of 5 animals per treatment group.
Each symbol represents the mean response of 5 animals per treatment group. Vertical bars are s.e.m.'s.
Treatments were given ip, lh before Il-1β, also given ip. There were 5 animals per treatment group.
Delta reaction time was measured 3h after Il-1β administration.
The Control was II-1β (0.05U), given ip.
Data set [7] deals with hyperalgesia evoked by PGE2. The experiment in a line: Rat paw pressure test, hyperalgesia evoked by PGE2. In kind it is in vivo. To be noted: for DELTA REACTION TIME: 3 h after PGE2, control 16.8.
The subject of data set [8] is hyperalgesia evoked by DbcAMP. The experiment in a line: Rat paw pressure test, hyperalgesia evoked by DbcAMP. In kind it is in vivo.
For data set [9], the system named is hyperalgesia evoked by IL-1β. To be noted: reference analgesics; cited from earlier work.
The conditions of data set [10]: in vivo.
The mark [11] stands for this setting: indomethacin 100 μg ipl 30 minutes before 0.05U IL-1β ipl or ip.
Where [12] appears, read: 20 μg/150 g rat ip 1h before PGE2 ipl.
[13] abbreviates: 50 μg/150 g rat ip 1h before PGE2 ipl.
Where [14] appears, read: 100 μg/150 g rat ip 1h before PGE2 ipl.
Where [15] appears, read: 200 μg/150 g rat ip 1h before PGE2 ipl.
Where [16] appears, read: 20 μg/150 g rat ip 1h before IL-1β (0.05U) ip.
Where [17] appears, read: 50 μg/150 g rat ip 1h before IL-1β (0.05U) ip.
The mark [18] stands for this setting: 100 μg/150 g rat ip 1h before IL-1β (0.05U) ip.
The mark [19] stands for this setting: 200 μg/150 g rat ip 1h before IL-1β (0.05U) ip.

For `COc1ccc2c(c1)c(CC(=O)O)c(C)n2C(=O)c1ccc(Cl)cc1` [Indomethacin, indomethacin], in data set [1], the “gastric erosions, % of the mice” value is 100%. The “gastric lesions” value in data set [1] is “caused gastric lesions”. In data set [2], the “effect on production of PGE2 / prostaglandin” value is “abolished PGE2 production”. Further, the “PGE2 release by MNC incubated for 4h with IL-1α (50 U/ml)” value in data set [2] (2 μg/ml, 5.9 micromoles/L, added 45 min before, ethanol control 2.0) was found to be 0.03 ± 0.0007 ng/mL. Besides, in data set [2] (2 μg/ml, 5.9 micromoles/L, added 45 min before, ethanol control 2.1), the “PGE2 release by MNC incubated for 4h with IL-1β (50 U/ml)” value is 0.03 ± 0.0005 ng/mL. Also, the “PGE2 release by MNC incubated for 4h with E. coli endotoxin (25 pg/ml)” value in [2] (2 μg/ml, 5.9 micromoles/L, added 45 min before, ethanol control 3.1) was determined as 0.03 ± 0.0004 ng/mL. The “PGE2 release by MNC (5 × 10^6 cells/ml) incubated for 4h with Saline control (0.9% w/v)” value in data set [2] (2 μg/ml, 5.9 micromoles/L, ethanol control 1.3) was 0.03 ± 0.0002 ng/ml. Also, the “% reductions from control values in mice injected with saline” value (shortened to “% reductions from control values”) is -37% in data set [3] (2.5 mg/kg ip), -61.5% in [3] (5 mg/kg ip) and -61.5% in data set [3] (10 mg/kg ip). In addition, the “number of contorsions (median), 10 to 20 min after acetic acid” value (“number of contorsions (median)” below) in data set [3] (2.5 mg/kg ip) is given as 16.5; in [3] (5 mg/kg ip), 10; in [3] (10 mg/kg ip), 10. For the same compound, the “(-%) reduction of contorsions vs control” value in [4] (1.25 mg/kg) amounted to 7.6%; in data set [4] (5.0 mg/kg), 26.0%; in [4] (20.0 mg/kg), 46.0%; in data set [5] (acetic acid .6%, 1.25 mg/kg) it was 23.6%; in data set [5] (acetic acid .6%, 5.0 mg/kg), 46.3%; in data set [5] (acetic acid .6%, 20.0 mg/kg), 57.4%. Moreover, the “total number of contorsions during 20 minutes after ip challenge” value was 36.4 in data set [4] (1.25 mg/kg); 29.2 in data set [4] (5.0 mg/kg); 21.3 in data set [4] (20.0 mg/kg); 34.6 in data set [5] (acetic acid .6% 0.1 ml/10 g, 1.25 mg/kg); 24.3 in [5] (acetic acid .6%, 5.0 mg/kg); 19.3 in data set [5] (acetic acid .6%, 20.0 mg/kg). Also, the “effect of pretreatment on hyperalgesic response to IL-1β, contralateral paws (CL)” value in [6] (setting [11]) is “no effect”. The “effect of pretreatment on hyperalgesic response to IL-1β, treated paws (I)” value in data set [6] (setting [11]) was “markedly attenuated”.

Consider `NCCCC[C@H](N)C(=O)N1CCC[C@@H]1C(=O)O` [K(D)P, Lys-D-Pro] (H-Lys-[dP]-OH), for which the “% reductions from control values” value was -58% in data set [3] (5 mg/kg ip); -10% in [3] (5 mg/kg po); -36% in [3] (10 mg/kg po); -77% in [3] (20 mg/kg ip); -38% in data set [3] (20 mg/kg po). The “number of contorsions (median)” value turned out to be 11 in data set [3] (5 mg/kg ip); 19 in data set [3] (5 mg/kg po); 13.5 in data set [3] (10 mg/kg po); 6 in data set [3] (20 mg/kg ip); 14 in data set [3] (20 mg/kg po). In data set [3], the “analgesic activity against hyperalgesia evoked by acetic acid, given ip” value is listed as “effective analgesic”. Moreover, the “analgesic activity against hyperalgesia evoked by acetic acid, given orally” value in data set [3] (po) is reported as “effective analgesic”.

As to `C[C@@H](O)[C@H](NC(=O)[C@H]1CCCN1C(=O)[C@@H](N)CCCCN)C(=O)O` [K(D)PT, Lys-D-Pro-Thr] (H-Lys-[dP]-Thr-OH), the “gastric lesions” value in the data set “Gastric lesions in mice” (32 mg/kg) is “No lesions were observed”; in the data set “Gastric lesions in mice” (mice of Example 10), “did not”.

With `CC(C)[C@H](NC(=O)[C@H]1CCCN1C(=O)[C@@H](N)CCCCN)C(=O)O` [K(D)PV, Lys-D-Pro-Val] (H-Lys-[dP]-Val-OH), the “% reductions from control values” value in [3] (2 mg/kg ip) is reported as -33%; in data set [3] (10 mg/kg ip), -38%; in data set [3] (30 mg/kg ip), -45%; in [3] (100 mg/kg ip) it was -74%; in data set [3] (100 mg/kg po) it was -52%. The “number of contorsions (median)” value in data set [3] (2 mg/kg ip) is given as 19; in [3] (10 mg/kg ip), 17; in data set [3] (30 mg/kg ip), 15.5; in data set [3] (100 mg/kg ip), 7; in data set [3] (100 mg/kg po), 13. Moreover, the “analgesic activity against hyperalgesia evoked by acetic acid, given ip” value in [3] was “dose-related analgesic activity”. For the same compound, the “% change of delta reaction time vs control (=100%)” value in data set [7] (setting [12]) is reported as -16.7%; in [7] (setting [13]), -20.2%; in [7] (setting [14]) it was -46±4%; in data set [7] (setting [15]), -64.3%; in data set [8] (200 μg/150 g rat ip 1 h before DbcAMP (100 μg/paw) ipl), -7.0%; in data set [6] (setting [16]), -23.9%. The “% change of delta reaction time vs control (=100%)” value in data set [6] (setting [17]) is recorded as -64.4%; in [6] (setting [18]), 84.1%; in [6] (setting [19]) it was -88.3%. Moreover, the “DELTA REACTION TIME” value in [7] (setting [12]) is 14.0 ± 0.4 s; in [7] (setting [13]), 13.4 ± 0.4 s; in data set [7] (setting [14]) it was 9.0 ± 0.2 s; in data set [7] (setting [15]) it was 6.0 ± 0.3 s; in [8] (200 μg/150 g rat ip 1 h before DbcAMP (100 μg/paw) ipl, 3 h after DbcAMP, control 17.2) it was 16.0 ± 0.2 s; in data set [6] (setting [16]), 18.2 ± 0.4 s. Also, the “DELTA REACTION TIME” value in [6] (setting [17]) amounted to 8.5 ± 0.6 s; in data set [6] (setting [18]) it was 3.8 ± 0.7 s; in data set [6] (setting [19]) it was 2.8 ± 0.6 s. Also, the “ED50 antagonising PGE2 evoked hyperalgesia” value in data set [7] (rats) is approximately 140 μg/150 g rat. Also, the “antagonism of hyperalgesia evoked by PGE2” value in data set [7] (rats) is recorded as “antagonize hyperalgesia evoked by PGE2”. In [6] (rats), the “ED50 antagonising IL-1β evoked hyperalgesia” value worked out at 40 μg/150 g rat. Besides, the “antagonism of hyperalgesia evoked by IL-1β” value in data set [6] (rats, peptide given before IL-1β) is “more potent antagonists of I1-1β-evoked hyperalgesia than Lys-D-Pro-Thr”.

For `CN1CC[C@]23c4c5ccc(O)c4O[C@H]2[C@@H](O)C=C[C@H]3[C@H]1C5` [Morphine, morphine], the “antagonism of on-going hyperalgesia” value in data set [9] is given as “able to antagonize on-going hyperalgesia”. Also, the “reaction time difference, hot plate” value in data set [10] was 3.52 s and 5.55 s. The “antagonism of hyperalgesia evoked by DbcAMP” value in data set [8] (rat, in vivo) is listed as “effective antagonist”.

On to `Cc1c(N(C)CS(=O)(=O)O)c(=O)n(-c2ccccc2)n1C` [dipyrone], for which the “antagonism of on-going hyperalgesia” value in data set [9] is “able to antagonize on-going hyperalgesia”.
